Where two headings read alike, the source gives them in different places.
Legend:
[1] = target: human CDK9/CyclinT kinase complex (Homo sapiens (Human), UniProt P50750); experiment: In Vitro CDK9/CyclinT Assay (IMAP fluorescent polarization); type: biochemical
Protocol: In Vitro CDK9/CyclinT Assay
The activity of the compounds described in the present invention can be determined by measuring the phosphorylation of a fluorescently-labeled peptide by human CDK9/CyclinT kinase complex by fluorescent polarization using a commercially available IMAP Screening Express Assay Kit (Molecular devices).
Test compounds were diluted in 100% DMSO to 5 mM stock concentration, then further dilutions were made in H2O or 100% DMSO to desirable concentrations. Each reaction consisted of 5 nM enzyme: CDK9/CyclinT (Proqinase cat#0371-0345-1), 400 nM TAMRA-Rbtide (synthetic 15-mer peptide derived from human retinoblastoma tumor suppressor protein labeled with TAMRA dye, Genecust Europe), 12 μM ATP (=Kmapp, Sigma-Aldrich) and kinase buffer: 20 mM MOPS pH 7 (Sigma-Aldrich), 1 mM DTT (Sigma-Aldrich), 10 mM MgCl2 (Sigma-Aldrich), 0.01% Tween 20 (Sigma-Aldrich).
For each reaction, 4 or 6 μl containing TAMRA-Rbtide, ATP and kianse buffer were combined with 2 μl diluted compound in H2O or 0.028 μl compound in 100% DMSO. The kinase reaction was started by the addition of 2 μl diluted enzyme. The reaction was allowed to run for 1 hour at room temperature. The reaction was stopped by adding 15 μl IMAP beads (1:400 beads in progressive (100% buffer A) 1× buffer).

Primary T cells = experiment: Cytotoxicity, viability by flow cytometry; type: cell-based
Protocol: Primary T cells are cultured and treated with different concentrations of the test compound. Viability is analysed by measuring through flow cytometry based techniques the percentage of viable cells, compared to untreated control=100%).

[2] = Table 4, toxic dose 50%, viable cells

human CDK9/CyclinT kinase complex, sequence (P50750 whole entry): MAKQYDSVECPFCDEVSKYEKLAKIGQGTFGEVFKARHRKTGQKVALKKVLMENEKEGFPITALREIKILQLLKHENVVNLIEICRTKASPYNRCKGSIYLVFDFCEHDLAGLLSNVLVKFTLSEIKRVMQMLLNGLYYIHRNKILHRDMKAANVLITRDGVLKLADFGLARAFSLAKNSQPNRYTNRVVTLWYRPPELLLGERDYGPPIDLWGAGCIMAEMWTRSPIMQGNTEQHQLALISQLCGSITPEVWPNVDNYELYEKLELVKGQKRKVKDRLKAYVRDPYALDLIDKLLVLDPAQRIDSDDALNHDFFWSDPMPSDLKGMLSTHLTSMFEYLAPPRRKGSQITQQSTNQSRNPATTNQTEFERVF
human CDK9/CyclinT kinase complex, sequence (O60563 whole entry partner): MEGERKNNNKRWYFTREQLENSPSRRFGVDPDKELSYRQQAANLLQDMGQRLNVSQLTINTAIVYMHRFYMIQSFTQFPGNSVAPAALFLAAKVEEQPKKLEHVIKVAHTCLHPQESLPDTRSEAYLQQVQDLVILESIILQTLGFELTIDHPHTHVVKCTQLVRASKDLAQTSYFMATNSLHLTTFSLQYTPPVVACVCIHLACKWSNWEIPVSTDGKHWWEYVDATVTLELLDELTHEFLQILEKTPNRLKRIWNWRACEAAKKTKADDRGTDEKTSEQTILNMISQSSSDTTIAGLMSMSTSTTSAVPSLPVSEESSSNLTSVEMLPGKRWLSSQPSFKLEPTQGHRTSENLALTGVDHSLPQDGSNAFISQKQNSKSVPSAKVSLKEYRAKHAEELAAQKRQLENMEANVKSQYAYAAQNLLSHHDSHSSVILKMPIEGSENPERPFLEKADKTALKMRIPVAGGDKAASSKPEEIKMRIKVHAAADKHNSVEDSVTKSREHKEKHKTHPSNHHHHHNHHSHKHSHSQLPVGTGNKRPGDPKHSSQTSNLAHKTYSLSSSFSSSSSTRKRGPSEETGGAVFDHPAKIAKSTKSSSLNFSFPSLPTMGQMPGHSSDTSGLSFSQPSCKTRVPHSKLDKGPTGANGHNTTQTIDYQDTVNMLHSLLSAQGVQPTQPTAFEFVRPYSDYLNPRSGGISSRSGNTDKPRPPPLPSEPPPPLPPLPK

| Structure (SMILES) | IC50 [1] [µM] | TD50 (Primary T cells) [µM] | IC50 ([1]; Table 1) [µM] | TD50 (Primary T cells; [2]) [µM] | IC50 ([1]; Table 5) [µM] | TD50 (Primary T cells; Table 5) [µM] |
| --- | --- | --- | --- | --- | --- | --- |
| CCOc1ccc(Nc2cc(-c3ccccc3OC)ncn2)cc1N [Example 101, 4-Ethoxy-N^1-[6-(2-methoxy-phenyl)-pyrimidin-4-yl]-benzene-1,3-diamine] | < 1 | 12 | – | – | – | – |
| COc1ccccc1-c1cc(Nc2ccc(Cl)c(C(N)=O)c2)ncn1 [Example 44, 2-Chloro-5-(6-(2-methoxyphenyl)pyrimidin-4-ylamino)benzamide] | < 1 | >5 | – | – | – | – |
| CCOc1ccc(Nc2cc(-c3ccc(F)cc3OC)ncn2)cc1N [Example 105, 4-Ethoxy-N^1-[6-(4-fluoro-2-methoxy-phenyl)-pyrimidin-4-yl]-benzene-1,3-diamine] | – | 7 | < 1 | – | – | – |
| COc1ccc(Nc2cc(-c3ccc(F)cc3OC)ncn2)cc1NC(C)=O [Example 117, N-{5-[6-(4-Fluoro-2-methoxy-phenyl)-pyrimidin-4-ylamino]-2-methoxy-phenyl}-acetamide] | < 1 | – | – | >2 | – | – |
| COc1ccccc1-c1cc(Nc2ccc(N3CCN(C)CC3)c(S(N)(=O)=O)c2)ncn1 [Example 38, 5-(6-(2-Methoxyphenyl)pyrimidin-4-ylamino)-2-(4-methylpiperazin-1-yl)benzenesulfonamide] | – | <1.5 | < 0.1 | – | – | – |
| CCOc1ccc(F)cc1-c1cc(Nc2cc(C(N)=O)c(OC)cc2F)ncn1 [Example 148, 5-[6-(2-Ethoxy-5-fluoro-phenyl)-pyrimidin-4-ylamino]-4-fluoro-2-methoxy-benzamide] | – | 1 | < 10 | – | – | – |
| CCOc1ccc(Nc2cc(-c3ccc(F)cc3OC)ncn2)cc1O [Example 114, 2-Ethoxy-5-[6-(4-fluoro-2-methoxy-phenyl)-pyrimidin-4-ylamino]-phenol] | < 1 | 10 | – | – | – | – |
| COc1ccccc1-c1cc(Nc2ccc(Cl)c(CN3C(=O)c4ccccc4C3=O)c2)ncn1 [Example 20, 2-(2-Chloro-5-(6-(2-methoxyphenyl)pyrimidin-4-ylamino)benzyl)isoindoline-1,3-dione] | < 10 | – | – | >0.5 | – | – |
| COc1ccc(-c2cc(Nc3ccc(OC)c(N)c3)ncn2)cc1 [Example 66, 4-Methoxy-N^1-[6-(4-methoxy-phenyl)-pyrimidin-4-yl]-benzene-1,3-diamine] | > 10 | >10 | – | – | – | – |
| COc1ccc(Nc2cc(-c3ccccc3OC)ncn2)cc1C(=O)NCc1ccncc1 [Example 28, 2-Methoxy-5-(6-(2-methoxyphenyl)pyrimidin-4-ylamino)-N-(pyridin-4-ylmethyl)benzamide] | < 1 | >0.5 | – | – | – | – |
| COC(=O)c1cc(Nc2cc(-c3ccccc3OC)ncn2)ccc1OC [Example 30, Methyl 2-methoxy-5-(6-(2-methoxyphenyl)pyrimidin-4-ylamino)benzoate] | – | >0.5 | < 0.1 | – | – | – |
| COc1ccc(Nc2cc(-c3ccccc3OC)ncn2)cc1F [Example 22, N-(3-Fluoro-4-methoxyphenyl)-6-(2-methoxyphenyl)pyrimidin-4-amine] | – | >0.5 | < 1 | – | – | – |
| COc1cc(F)ccc1-c1cc(Nc2cc(F)c(OC)c(C(N)=O)c2)ncn1 [Example 138, 3-Fluoro-5-[6-(4-fluoro-2-methoxy-phenyl)-pyrimidin-4-ylamino]-2-methoxy-benzamide] | – | >20 | < 10 | – | – | – |
| CCOC(=O)c1cc(Nc2cc(-c3ccccc3OC)ncn2)ccc1Cl [Example 14, Ethyl 2-chloro-5-(6-(2-methoxyphenyl)pyrimidin-4-ylamino)benzoate] | < 1 | >0.5 | – | – | – | – |
| COc1ccc(F)cc1-c1cc(Nc2cc(F)c(OC)c(C(N)=O)c2)ncn1 [Example 140, 3-Fluoro-5-[6-(5-fluoro-2-methoxy-phenyl)-pyrimidin-4-ylamino]-2-methoxy-benzamide] | – | >20 | < 10 | – | – | – |
| COC(=O)Nc1cc(Nc2cc(-c3ccc(F)cc3OC)ncn2)ccc1OC [Example 118, {5-[6-(4-Fluoro-2-methoxy-phenyl)-pyrimidin-4-ylamino]-2-methoxy-phenyl}-carbamic acid methyl ester] | – | – | < 1 | >2 | < 1 | >2 |
| COc1ccc(Nc2cc(-c3ccccc3Oc3ccccc3)ncn2)cc1N [Example 77, 4-Methoxy-N^1-[6-(2-phenoxy-phenyl)-pyrimidin-4-yl]-benzene-1,3-diamine] | – | 10 | < 10 | – | – | – |

| Structure (SMILES) | IC50 [1] [µM] | TD50 (Primary T cells) [µM] | IC50 ([1]; Table 1) [µM] | TD50 (Primary T cells; [2]) [µM] | IC50 ([1]; Table 5) [µM] | TD50 (Primary T cells; Table 5) [µM] |
| --- | --- | --- | --- | --- | --- | --- |
| COc1ccccc1-c1cc(Nc2ccc(N3CCOCC3)c(CO)c2)ncn1 [Example 19, (5-(6-(2-Methoxyphenyl)pyrimidin-4-ylamino)-2-morpholinophenyl)methanol] | – | >0.5 | < 1 | – | – | – |
| COc1ccc(Nc2cc(-c3ccccc3OC)ncn2)cc1C(=O)N(C)N [Example 46, 2-Methoxy-5-[6-(2-methoxy-phenyl)-pyrimidin-4-ylamino]-benzoic acid N-methyl-hydrazide] | – | – | < 1 | >10 | < 1 | >10 |
| COc1ccc(Nc2cc(-c3ccccc3OCc3ccccc3)ncn2)cc1N [Example 71, N^1-[6-(2-Benzyloxy-phenyl)-pyrimidin-4-yl]-4-methoxy-benzene-1,3-diamine] | – | >10 | < 1 | – | < 1 | – |
| COc1ccc(Nc2cc(-c3ccccc3OC)ncn2)cc1OCCN1CCOCC1 [Example 8, N-(4-Methoxy-3-(2-morpholinoethoxy)phenyl)-6-(2-methoxyphenyl)pyrimidin-4-amine] | – | – | < 1 | >1.5 | – | – |
| COc1ccccc1-c1cc(Nc2ccc(C(N)=O)c(Cl)c2)ncn1 [Example 132, 2-Chloro-4-[6-(2-methoxy-phenyl)-pyrimidin-4-ylamino]-benzamide] | – | >10 | < 1 | – | < 1 | – |
| COc1ccccc1-c1cc(Nc2ccc(F)c(Cn3cnc4ccccc43)c2)ncn1 [Example 40, N-(3-((1H-Benzo[d]imidazol-1-yl)methyl)-4-fluorophenyl)-6-(2-methoxyphenyl)pyrimidin-4-amine] | – | 0.4 | < 0.1 | – | – | – |
| CCOc1cc(F)ccc1-c1cc(Nc2cc(N)c(OC)c(F)c2)ncn1 [Example 89, N^1-[6-(2-Ethoxy-4-fluoro-phenyl)-pyrimidin-4-yl]-5-fluoro-4-methoxy-benzene-1,3-diamine] | – | >20 | < 1 | – | – | – |
| COc1ccccc1-c1cc(Nc2ccc(Cl)c(C(=O)N3CCCC3)c2)ncn1 [Example 15, (2-Chloro-5-(6-(2-methoxyphenyl)pyrimidin-4-ylamino)phenyl)(pyrrolidin-1-yl)methanone] | < 1 | >0.5 | – | – | – | – |
| CCOC(=O)c1cc(Nc2cc(-c3ccccc3OC)ncn2)ccc1N1CCOCC1 [Example 18, Ethyl 5-(6-(2-methoxyphenyl)pyrimidin-4-ylamino)-2-morpholinobenzoate] | – | >0.5 | < 1 | – | – | – |
| COc1ccc(Nc2cc(-c3ccccc3OC)ncn2)cc1CNc1ccccc1 [Example 34, N-(4-Methoxy-3-((phenylamino)methyl)phenyl)-6-(2-methoxyphenyl)pyrimidin-4-amine] | < 10 | >5 | – | – | – | – |
| COc1ccc(Nc2cc(-c3ccccc3OC)ncn2)cc1NC(=O)OCC(Cl)(Cl)Cl [Example 27, 2,2,2-Trichloroethyl 2-methoxy-5-(6-(2-methoxyphenyl)pyrimidin-4-ylamino)phenylcarbamate] | < 10 | – | – | >0.5 | – | – |
| COC(=O)c1ccc(Nc2cc(-c3ccccc3OC)ncn2)cc1OC [Example 133, 2-Methoxy-4-[6-(2-methoxy-phenyl)-pyrimidin-4-ylamino]-benzoic acid methyl ester] | – | >10 | < 1 | – | < 1 | – |
| COc1ccccc1-c1cc(Nc2cc(N)c(OC)c(F)c2)ncn1 [Example 88, 5-Fluoro-4-methoxy-N^1-[6-(2-methoxy-phenyl)-pyrimidin-4-yl]-benzene-1,3-diamine] | < 1 | >20 | – | – | – | – |
| COc1ccc(Nc2cc(-c3ccccc3OC)ncn2)cc1OCc1ccccc1 [Example 36, N-(3-(Benzyloxy)-4-methoxyphenyl)-6-(2-methoxyphenyl)pyrimidin-4-amine] | < 10 | – | – | >5 | – | – |
| COc1cc(F)ccc1-c1cc(Nc2cc(N)c(OC)c(F)c2)ncn1 [Example 90, 5-Fluoro-N^1-[6-(4-fluoro-2-methoxy-phenyl)-pyrimidin-4-yl]-4-methoxy-benzene-1,3-diamine] | < 1 | >20 | – | – | – | – |
| COc1ccccc1-c1cc(Nc2ccc(Cl)c(C(=O)NN)c2)ncn1 [Example 7, 2-Chloro-5-(6-(2-methoxyphenyl)pyrimidin-4-ylamino)benzohydrazide] | – | >5 | < 0.1 | – | – | – |
| COc1ccc(Nc2cc(-c3ccc(F)cc3OC(C)C)ncn2)cc1N [Example 86, N^1-[6-(4-Fluoro-2-isopropoxy-phenyl)-pyrimidin-4-yl]-4-methoxy-benzene-1,3-diamine] | – | 4 | < 1 | – | – | – |

Source: patent US9617225B2 (VIROSTATICS SRL, priority 2012, dated 2017)
